ChEMBL document CHEMBL5230126, “Cyclic tailor-made amino acids in the design of modern pharmaceuticals” (Eur J Med Chem, 2020)

Columns and labels:
[1] = target: T1, Orexin/Hypocretin receptor type 1 (Homo sapiens) (UniProt O43613); assay: Antagonist activity at human OX1 receptor; conditions: filed as antagonist
T1 sequence (whole entry): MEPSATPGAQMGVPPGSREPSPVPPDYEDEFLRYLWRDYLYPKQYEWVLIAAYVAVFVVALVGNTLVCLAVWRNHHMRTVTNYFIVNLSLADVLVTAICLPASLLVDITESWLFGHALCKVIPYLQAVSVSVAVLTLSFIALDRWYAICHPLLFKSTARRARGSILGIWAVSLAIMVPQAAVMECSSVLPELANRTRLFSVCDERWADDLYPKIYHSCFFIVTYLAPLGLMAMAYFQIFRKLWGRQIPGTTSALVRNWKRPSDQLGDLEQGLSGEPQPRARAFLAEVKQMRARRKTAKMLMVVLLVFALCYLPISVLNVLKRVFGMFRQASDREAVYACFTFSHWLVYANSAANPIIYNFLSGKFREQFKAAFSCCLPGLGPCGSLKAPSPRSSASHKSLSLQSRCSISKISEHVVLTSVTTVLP

[2] = target: T2, Orexin/Hypocretin receptor type 1 (Homo sapiens, UniProt O43613); assay: Inhibition of human orexin 1
T2 sequence (O43613 whole entry): T1 sequence (whole entry)

Orexin receptor type 2 = target: T3, Orexin receptor type 2 (Homo sapiens, UniProt O43614); assay: Inhibition of human orexin 2
T3 sequence (O43614 whole entry): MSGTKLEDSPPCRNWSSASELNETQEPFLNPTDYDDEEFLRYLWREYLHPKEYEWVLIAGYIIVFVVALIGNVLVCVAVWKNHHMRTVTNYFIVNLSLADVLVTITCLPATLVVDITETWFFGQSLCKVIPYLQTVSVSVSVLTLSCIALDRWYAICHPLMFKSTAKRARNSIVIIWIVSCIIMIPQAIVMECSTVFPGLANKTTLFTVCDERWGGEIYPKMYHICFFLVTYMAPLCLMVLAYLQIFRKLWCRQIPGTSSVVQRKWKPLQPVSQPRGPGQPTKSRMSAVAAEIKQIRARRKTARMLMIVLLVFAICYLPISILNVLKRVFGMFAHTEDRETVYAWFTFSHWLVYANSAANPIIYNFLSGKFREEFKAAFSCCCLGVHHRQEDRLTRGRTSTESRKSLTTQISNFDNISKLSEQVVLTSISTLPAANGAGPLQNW

[3] = Displacement of [125I]-Ang II from rabbit uterine membrane AT2R incubated for 3 hrs in presence of DuP 753; assay type: cell membranes, Oryctolagus cuniculus, Uterus
[4] = Displacement of [125I]-Ang II from rat liver membrane AT1R incubated for 3 hrs; assay type: cell membranes

pKb [1]	Ki [2] [µM]	Ki (Orexin receptor type 2) [µM]	IC50 [3] [µM]	IC50 [4] [µM]	Structure (SMILES)
8	–	–	–	–	Cc1ccc(-c2cnccn2)c(C(=O)N2CCC3(CC3)C[C@H]2CNc2cccc(C(F)(F)F)n2)c1
–	0.0794	1.58	–	–	Cc1ccc(-c2ncccn2)c(C(=O)N2C[C@@H]3C[C@@H]3C[C@H]2CNc2nnc(C(F)(F)F)s2)n1
–	–	–	0.0069	> 10	Cc1cc(Cn2cnc3c2C[C@@H](C(=O)O)N(C(=O)C(c2ccccc2)c2ccccc2)C3)ccc1N(C)C
–	–	–	0.00058	> 10	COc1ccc2c(c1OCc1ccccc1)C[C@@H](C(=O)O)N(C(=O)C(c1ccccc1)c1ccccc1)C2 [OLODANRIGAN]
